The values below come from US20260176267A1, “PREPARATION OF IMIDAZOPYRIDINE AND IMIDAZOPYRIDAZINE DERIVATIVES AS NOVEL DIACYLGLYCERIDE O-ACYLTRANSFERASE 2 INHIBITORS” (Merck Sharp & Dohme LLC, priority 2022, published 2026).

The assay has as its target T1, human DGAT2 (hDGAT2) (Homo sapiens, UniProt Q96PD7).
T1 construct: made in house; host or cells: Sf-9 insect cells (baculovirus), membrane fraction
T1 sequence (Q96PD7 1-388): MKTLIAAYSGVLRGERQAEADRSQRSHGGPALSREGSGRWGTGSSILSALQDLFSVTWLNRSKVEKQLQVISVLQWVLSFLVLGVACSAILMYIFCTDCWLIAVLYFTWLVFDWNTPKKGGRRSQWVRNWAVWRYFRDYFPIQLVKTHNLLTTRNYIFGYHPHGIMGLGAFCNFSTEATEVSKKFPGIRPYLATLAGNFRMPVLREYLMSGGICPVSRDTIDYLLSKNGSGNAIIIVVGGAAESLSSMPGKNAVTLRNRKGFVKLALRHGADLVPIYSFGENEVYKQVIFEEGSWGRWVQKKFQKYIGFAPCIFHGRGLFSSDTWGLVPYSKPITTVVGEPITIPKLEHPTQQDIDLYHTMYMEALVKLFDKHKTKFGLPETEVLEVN
The assay can be described thus: DGAT2 Enzymatic Activity Assay. Type of assay: biochemical. To be noted: membrane prep of Sf-9 cells expressing hDGAT2; 13C18-triolein product by LC/MS/MS; 25 μM diolein, 5 μM 13C oleoyl-CoA, rt. A digest of the protocol:
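Membranes from Sf-9 cells expressing untagged human DGAT2 (baculovirus, 48 h) used as enzyme at rt. The product ^13C18-triolein is quantified by LC/MS/MS against a ^13C21-triolein internal standard. Percent inhibition is taken from high and low controls, and IC50 is derived.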
As usually defined, the IC50 is the concentration that inhibits the measured activity by half. Regarding `Cc1c(C(=O)NC2(C)CCS(=O)(=O)CC2)nc2ccc(Oc3ncc(O)cc3OCC(F)(F)F)cn12` [Example 148, 6-[[5-hydroxy-3-(2,2,2-trifluoroethoxy)-2-pyridyl]oxy]-3-methyl-N-(4-methyl-1,1-dioxo-thian-4-yl)imidazo[1,2-a]pyridine-2-carboxamide], the IC50 was 80 nM. In the case of `CCOc1ccccc1Oc1ccc2nc(C(=O)N[C@H]3CCOC3)cn2c1` [Example 184, (S)-6-(2-ethoxyphenoxy)-N-(tetrahydrofuran-3-yl)imidazo[1,2-a]pyridine-2-carboxamide] it was 6340 nM; in that of `Cc1cc(Oc2ncc(Cl)cc2OCC(F)F)nn2cc(C(=O)NC3(C)CCS(=O)(=O)CC3)nc12` [Example 173, 6-[[5-chloro-3-(2,2-difluoroethoxy)-2-pyridyl]oxy]-8-methyl-N-(4-methyl-1,1-dioxo-thian-4-yl)imidazo[1,2-b]pyridazine-2-carboxamide], 11 nM. In turn, `Cc1c(Oc2ncc(Cl)cc2OCC(F)(F)F)ccc2nc(C(=O)NC3(C)CCS(=O)(=O)CC3)c(F)n12` [Example 142, 6-[[5-chloro-3-(2,2,2-trifluoroethoxy)-2-pyridyl]oxy]-3-fluoro-5-methyl-N-(4-methyl-1,1-dioxo-thian-4-yl)imidazo[1,2-a]pyridine-2-carboxamide] had an IC50 of 3.5 nM. Compared with the last compound, the IC50 is about 3.1-fold lower.

On to `Cc1c(C(=O)NC2(C)CCS(=O)(=O)CC2)nc2c(F)cc(Oc3ncccc3OCC(F)(F)F)cn12` [Example 117, 8-fluoro-3-methyl-N-(4-methyl-1,1-dioxo-thian-4-yl)-6-[[3-(2,2,2-trifluoroethoxy)-2-pyridyl]oxy]imidazo[1,2-a]pyridine-2-carboxamide], for which the IC50 is 1.2 nM.

For the compound `CC1(NC(=O)c2cn3cc(Oc4ncc(Cl)cc4OCC(F)F)ccc3n2)CS(=O)(=O)C1` [Example 11, 6-[[5-chloro-3-(2,2-difluoroethoxy)-2-pyridyl]oxy]-N-(3-methyl-1,1-dioxo-thietan-3-yl)imidazo[1,2-a]pyridine-2-carboxamide], the IC50 stood at 23 nM. Regarding `CCOc1ccccc1COc1ccc2nc(C(=O)NC3(C)CCS(=O)(=O)CC3)c(C)n2c1` [Example 124, 6-[(2-ethoxyphenyl)methoxy]-3-methyl-N-(4-methyl-1,1-dioxo-thian-4-yl)imidazo[1,2-a]pyridine-2-carboxamide], half-maximal inhibition (IC50) required 5.7 nM. The compound `Cc1cc2nc(C(=O)NC3(C)CCS(=O)(=O)CC3)c(C)n2nc1Oc1ncc(F)cc1OCC(F)F` [Example 171, 6-[[3-(2,2-difluoroethoxy)-5-fluoro-2-pyridyl]oxy]-3,7-dimethyl-N-(4-methyl-1,1-dioxo-thian-4-yl)imidazo[1,2-b]pyridazine-2-carboxamide] came in with an IC50 of 1.3 nM. In the case of `CCOc1cc(Cl)cnc1Oc1ccc2nc(C(=O)NC3(C)CS(=O)(=O)C3)c(C)n2c1` [Example 69, 6-[(5-chloro-3-ethoxy-2-pyridyl)oxy]-3-methyl-N-(3-methyl-1,1-dioxo-thietan-3-yl)imidazo[1,2-a]pyridine-2-carboxamide], the IC50 came out at 2 nM. As to `Cc1c(Oc2nccnc2OCC(F)F)ccc2nc(C(=O)NC3(C)CCS(=O)(=O)CC3)cn12` [Example 46, 6-[3-(2,2-difluoroethoxy)pyrazin-2-yl]oxy-5-methyl-N-(4-methyl-1,1-dioxo-thian-4-yl)imidazo[1,2-a]pyridine-2-carboxamide], inhibition was half-maximal at 42 nM (IC50). Compound `Cc1c(C(=O)NC2CCS(=O)(=O)C(C)(C)C2)nc2ccc(Oc3ncc(F)cc3OCC(F)F)cn12` (stereo not drawn) [Example 93, 6-[[3-(2,2-difluoroethoxy)-5-fluoro-2-pyridyl]oxy]-N-(2,2-dimethyl-1,1-dioxo-thian-4-yl)-3-methyl-imidazo[1,2-a]pyridine-2-carboxamide] had an IC50 of 2.9 nM. Compared with the last compound, the IC50 is about 14-fold lower. As to `CCOc1cccnc1Oc1ccc2nc(C(=O)Nc3ccc(C)nn3)cn2c1` [Example 57, 6-[(3-ethoxy-2-pyridyl)oxy]-N-(6-methylpyridazin-3-yl)imidazo[1,2-a]pyridine-2-carboxamide], the IC50 is 1110 nM. Consider `CC1(NC(=O)c2cn3cc(Oc4ncc(F)cc4OCC(F)(F)F)c(F)cc3n2)CCS(=O)(=O)CC1` [Example 21, 7-fluoro-6-[[5-fluoro-3-(2,2,2-trifluoroethoxy)-2-pyridyl]oxy]-N-(4-methyl-1,1-dioxo-thian-4-yl)imidazo[1,2-a]pyridine-2-carboxamide], for which the IC50 came to 1.8 nM. In the case of `Cc1c(C(=O)NC2(C)CCS(=O)(=O)CC2)nc2ccc(Oc3ncccc3OCC(F)(F)F)cn12` [Example 87, 3-methyl-N-(4-methyl-1,1-dioxo-thian-4-yl)-6-[[3-(2,2,2-trifluoroethoxy)-2-pyridyl]oxy]imidazo[1,2-a]pyridine-2-carboxamide] it was 17 nM; in that of `CCOCC(C)(C)COc1ccc2nc(C(=O)NC3(C)CCS(=O)(=O)CC3)c(C)n2c1` [Example 129, 6-(3-ethoxy-2,2-dimethyl-propoxy)-3-methyl-N-(4-methyl-1,1-dioxo-thian-4-yl)imidazo[1,2-a]pyridine-2-carboxamide], 161 nM. For `Cc1c(Oc2ncc(Cl)cc2OCC(F)(F)F)ccc2nc(C(=O)NC3(C)CCS(=O)(=O)CC3)cn12` [Example 17], half-maximal inhibition (IC50) was put at 1.4 nM. Regarding `Cc1c(C(=O)NC2(C)CCS(=O)(=O)CC2)nc2cc(F)c(Oc3nccnc3OCC(F)(F)F)cn12` [Example 122, 7-fluoro-3-methyl-N-(4-methyl-1,1-dioxo-thian-4-yl)-6-[3-(2,2,2-trifluoroethoxy)pyrazin-2-yl]oxy-imidazo[1,2-a]pyridine-2-carboxamide], it took 7.7 nM to reach half-maximal inhibition (IC50). The compound `Cc1c(Oc2ncc(Cl)cc2OCC(F)(F)F)ccc2nc(C(=O)NC3(C)CCS(=O)(=O)CC3)c(Cl)n12` [Example 141, 3-chloro-6-[[5-chloro-3-(2,2,2-trifluoroethoxy)-2-pyridyl]oxy]-5-methyl-N-(4-methyl-1,1-dioxo-thian-4-yl)imidazo[1,2-a]pyridine-2-carboxamide] yielded an IC50 of 2.6 nM.

Compound `CC1(NC(=O)c2nc3cc(Cl)c(Oc4nccnc4OCC(F)(F)F)nn3c2Cl)CCS(=O)(=O)CC1` [Example 177, 3,7-dichloro-N-(4-methyl-1,1-dioxo-thian-4-yl)-6-[3-(2,2,2-trifluoroethoxy)pyrazin-2-yl]oxy-imidazo[1,2-b]pyridazine-2-carboxamide] yielded an IC50 of 391 nM. For the compound `Cc1c(C(=O)NC2(C)CCS(=O)(=O)CC2)nc2ccc(Oc3nccnc3OCC(F)(F)F)cn12` [Example 82, 3-methyl-N-(4-methyl-1,1-dioxo-thian-4-yl)-6-[3-(2,2,2-trifluoroethoxy)pyrazin-2-yl]oxy-imidazo[1,2-a]pyridine-2-carboxamide], the midpoint of inhibition, the IC50, lay at 9.1 nM. `CCc1cnc(Oc2ccc3nc(C(=O)NC4(C)CS(=O)(=O)C4)c(C)n3c2)c(OCC(F)(F)F)c1` [Example 79, 6-[[5-ethyl-3-(2,2,2-trifluoroethoxy)-2-pyridyl]oxy]-3-methyl-N-(3-methyl-1,1-dioxo-thietan-3-yl)imidazo[1,2-a]pyridine-2-carboxamide] showed an IC50 of 6.8 nM.
